These results are taken from patent US10449202B2, “Rationale-based design of a targeted therapy for cancer” (priority 2013, dated 2019).

The test system of assay [1] is prostate cancer. The note with it: Phase 2 human clinical trial, prostate cancer patients; cited from earlier work.
The subject of assay [2] is PRK1. The experiment in a line: Western blot of PRK1 protein expression in prostate cancer cell lines. The note with it: LNCaP, PC3 and DU145 cells (any of the tested cell lines), 1 μM, 6 hours. A general note: In western blotting, separated proteins are transferred to a membrane and probed.
Assay [3] concerns PKC. The note with it: read-out: IC50 PKC; cited from earlier work.
The test system of assay [4] is DEK. The experiment in a line: Western blot of DEK protein levels in prostate, breast and gastric cancer cells, 24 hours, two doses. The note with it: gastric cancer cells (MKN-45 and NCI-N87).
Assay [5] has as its system SRC-3. The experiment in a line: Western blot of SRC-3 protein expression in prostate cancer cell lines. The note with it: 1 μM, 6 hours. The assay is classed as cell-based. An excerpt: (§1) Ponceau S was used to stain proteins.
Assay [6] relates to PRK-1. Nature of the assay: Subcellular fractionation and Western blot of PRK-1 in nucleus and cytoplasm. The conditions noted are these: 6 hours. It counts as cell-based.
Source text: as §1
(§2) Nuclear and cytosolic fractions were obtained and analyzed by western blot. Antibodies used include SRC-3, PRK, tubulin, histone-H3, and actin.

Assay [7] relates to prostate cancer cells. The experiment in a line: MTT cell viability assay, prostate cancer cells. The note with it: 10-3000 nM, 48 hours, PC3, DU145, LNCaP. For orientation: Tetrazolium assays rely on reduction of a dye to a coloured formazan, in cell work by metabolically active cells.
The test system of assay [8] is gastric cancer cells. Nature of the assay: MTT cell viability assay, gastric cancer cells. The note with it: 10-3000 nM, 48 hours, AGS, MKN-45, Hs746T, NCI-N87.
The subject of assay [9] is SRC3. Nature of the assay: Western blot of SRC3 protein levels in prostate, breast and gastric cancer cells, 24 hours, two doses. The note with it: for SRC3 protein levels: two doses.
Assay [10] relates to SRC-3. The experiment in a line: Subcellular fractionation and Western blot of SRC-3 in nucleus and cytoplasm. The assay is classed as cell-based. The conditions noted are these: 1000 nM, 6 hours.
Source text: as §1, §2

As a reminder, the IC50 is the concentration that inhibits the measured activity by half. For `C[C@]12O[C@H](C[C@]1(O)CO)n1c3ccccc3c3c4c(c5c6ccccc6n2c5c31)CNC4=O` [lestaurtinib], in assay [1], the “primary clinical endpoint of reduced PSA levels” value is given as “failed to achieve the primary clinical endpoint of reduced PSA levels”. In addition, the “PRK1 protein expression level” value in assay [2] is given as “not significantly altered”. The IC50 in assay [3] was 226 nM. In addition, the DEK levels result in assay [4] is listed as “did not change”. In addition, the “SRC-3 protein expression level” value in [5] (DU145 cells) is “not significantly altered”; in assay [5] (LNCaP cells), “profound decrease”; in [5] (PC3 cells) it was “not significantly altered”. Also, the “cytoplasmic PRK-1 levels” value in [6] (LNCaP, PC3, DU145, 1000 nM) is “unaltered”. The “nuclear PRK-1 protein levels” value in [6] (all three cell lines (LNCaP, PC3, DU145), 1000 nM) is on record as “increased”. Also, in [7], the “viability of prostate cancer cells” value is “effective in reducing viability”. For the same compound, the “viability of gastric cancer cells” value in assay [8] is given as “effective in reducing viability”. The results for the SRC3 protein levels result in assay [9] (MCF7 breast cancer cells) and in assay [9] (ZR75-1 breast cancer cells) were “most profound dose-dependent decrease” and “no obvious change”, respectively. For the same compound, in assay [9] (MKN-45 gastric cancer cells, higher dose), the SRC3 expression levels entry is reported as “showed a decrease”. In addition, the “reduction in cytoplasmic SRC-3, LNCaP compared to PC3 or DU145” value in [10] (LNCaP cells) is “much more dramatic”. In assay [10] (LNCaP, DU145 or PC3 cells), the “nuclear SRC-3 protein levels” value is listed as “did not caused a reduction”. The “SRC-3 protein in the cytoplasm” value in assay [10] (all three cell lines (LNCaP, PC3, DU145)) is recorded as “reduced”.
